Source: US20260217687A1 (NeoPhore Limited, priority 2023, published 2026)

These compounds were tested against T1, recombinant N-terminal MLH1 (residues 15-340) (Homo sapiens, UniProt P40692) (assay: Fluorescence Polarisation Assay for MLH1). Details: 100 nM N-terminal MLH1, 5 nM probe compound.
T1 construct: recombinant N-terminal MLH1 (residues 15-340)
T1 sequence (P40692 15-340): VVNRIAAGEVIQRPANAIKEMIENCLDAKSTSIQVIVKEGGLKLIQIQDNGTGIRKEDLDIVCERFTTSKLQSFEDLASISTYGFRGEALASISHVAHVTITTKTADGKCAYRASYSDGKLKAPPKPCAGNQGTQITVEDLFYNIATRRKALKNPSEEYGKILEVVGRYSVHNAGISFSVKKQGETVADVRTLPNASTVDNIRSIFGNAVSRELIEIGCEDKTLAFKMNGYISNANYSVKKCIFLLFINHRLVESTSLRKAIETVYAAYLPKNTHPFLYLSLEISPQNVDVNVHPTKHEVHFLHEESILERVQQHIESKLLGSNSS
Type: binding
Outline: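 Fluorescence polarisation displacement: 100 nM MLH1 (15-340) preincubated 30 min at room temperature with compound, then 5 nM rhodamine-labelled probe added and read immediately. Buffer 25 mM HEPES pH 7.5, 250 mM NaCl, 10 mM MgCl2, 0.01% Triton X-100, 5 mM DTT; normalised to no-inhibitor and no-enzyme controls.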

| Structure (SMILES) | IC50 |
| --- | --- |
| CN(C)CCOc1cc2c(c(C(F)F)c1)CN(C(=O)c1c(O)cc(C(F)F)cc1OCc1ccccc1)CC2 [Example 4.74, (2-(Benzyloxy)-4-(difluoromethyl)-6-hydroxyphenyl)(8-(difluoromethyl)-6-(2-(dimethylamino)ethoxy)-3,4-dihydroisoquinolin-2(1H)-yl)methanone] | 0.1 to 1 µM |
| COc1cc(O)c(C(=O)N2Cc3cccc(N[C@@H]4CCOC4)c3C2)c(OCc2ccccc2)c1 [Example 2, (R)-(2-(Benzyloxy)-6-hydroxy-4-methoxyphenyl)(4-((tetrahydrofuran-3-yl)amino)isoindolin-2-yl)methanone] | 0.1 to 1 µM |
| N#Cc1cc(O)c(C(=O)N2CCc3cccnc32)c(OCc2ccccc2)c1 [Example 27.14, 3-(Benzyloxy)-4-(2,3-dihydro-1H-pyrrolo[2,3-b]pyridine-1-carbonyl)-5-hydroxybenzonitrile] | 1 to 10 µM |
| CC(=O)N1CCC[C@H](Nc2cccc3c2CN(C(=O)c2c(O)cc(C#N)cc2OCc2ccccc2)C3)C1 [Example 10.18, (S)-4-(4-((1-Acetylpiperidin-3-yl)amino)isoindoline-2-carbonyl)-3-(benzyloxy)-5-hydroxybenzonitrile] | 0.1 to 1 µM |
| O=C(c1c(O)cc(C(F)F)cc1OCC12CC(CO1)C2)N1CCc2cccc(N[C@H]3CCOC3)c2C1 [Example 28.1, (S)-(2-((2-Oxabicyclo[2.1.1]hexan-1-yl)methoxy)-4-(difluoromethyl)-6-hydroxyphenyl)(8-((tetrahydrofuran-3-yl)amino)-3,4-dihydroisoquinolin-2(1H)-yl)methanone] | 1 to 10 µM |
| CN(C)Cc1ccc2c(n1)CN(C(=O)c1c(O)cc(Cl)cc1OCc1ccccc1)C2 [Example 10.21] | 1 to 10 µM |
| CN(C)CCOc1nc2c(c(NC3CCOC3)n1)CN(C(=O)c1c(O)cc(C#N)cc1OCc1ccccc1)CC2 (centres unmarked) [Example 27.16, 3-(Benzyloxy)-4-(2-(2-(dimethylamino)ethoxy)-4-((tetrahydrofuran-3-yl)amino)-5,6,7,8-tetrahydropyrido[4,3-d]pyrimidine-6-carbonyl)-5-hydroxybenzonitrile] | 0.1 to 1 µM |
| CN1CC[C@@H](Nc2cccc3c2CN(C(=O)c2c(O)cc(C(F)F)cc2OCc2ccccc2)CC3)C1=O [Example 4.15, (R)-3-((2-(2-(Benzyloxy)-4-(difluoromethyl)-6-hydroxybenzoyl)-1,2,3,4-tetrahydroisoquinolin-8-yl)amino)-1-methylpyrrolidin-2-one] | 0.1 to 1 µM |
| CN(C)CCOc1cc2c(c(N[C@H]3CCOC3)c1)CN(C(=O)c1c(O)cc(Cl)cc1OCc1ccccc1)CC2 [Example 22, (S)-(2-(Benzyloxy)-4-chloro-6-hydroxyphenyl)(6-(2-(dimethylamino)ethoxy)-8-((tetrahydrofuran-3-yl)amino)-3,4-dihydroisoquinolin-2(1H)-yl)methanone] | < 0.1 µM |
| COc1ccc(COc2cc(C(F)F)cc(O)c2C(=O)N2Cc3cccc(N[C@H]4CCOC4)c3C2)cc1 [Example 4.8, (S)-(4-(Difluoromethyl)-2-hydroxy-6-((4-methoxybenzyl)oxy)phenyl)(4-((tetrahydrofuran-3-yl)amino)isoindolin-2-yl)methanone] | 0.1 to 1 µM |
| CN1CC[C@@H](Oc2ccc3c(c2)CCN(C(=O)c2c(O)cc(C(F)F)cc2OCc2ccccc2)C3)C1 [Example 4.65, (R)-(2-(Benzyloxy)-4-(difluoromethyl)-6-hydroxyphenyl)(6-((1-methylpyrrolidin-3-yl)oxy)-3,4-dihydroisoquinolin-2(1H)yl)methanone] | 0.1 to 1 µM |
| CN(C)Cc1cc2c(cn1)CN(C(=O)c1c(O)cc(C#N)cc1OCc1ccccc1)C2 [Example 27, 3-(Benzyloxy)-4-(6-((dimethylamino)methyl)-2,3-dihydro-1H-pyrrolo[3,4-c]pyridine-2-carbonyl)-5-hydroxybenzonitrile] | 1 to 10 µM |
| COc1cccc2c1CN(C(=O)c1c(O)cc(C#N)cc1OCc1ccccc1)C2 [Example 10.11, 3-(Benzyloxy)-5-hydroxy-4-(4-methoxyisoindoline-2-carbonyl)benzonitrile] | 1 to 10 µM |
| COc1cc2c(c(N[C@H]3CCOC3)c1)CN(C(=O)c1c(O)cc(C#N)cc1OCc1ccccc1)C2 [Example 10.14, (S)-3-(Benzyloxy)-5-hydroxy-4-(6-methoxy-4-((tetrahydrofuran-3-yl)amino)isoindoline-2-carbonyl)benzonitrile] | 0.1 to 1 µM |
| CN(C)Cc1ccc2c(n1)CN(C(=O)c1c(O)cc(C(F)F)cc1OCc1ccccc1)C2 [Example 4.52, (2-(Benzyloxy)-4-(difluoromethyl)-6-hydroxyphenyl)(2-((dimethylamino)methyl)-5,7-dihydro-6H-pyrrolo[3,4-b]pyridin-6-yl)methanone] | 0.1 to 1 µM |
| CN1CC(Oc2ccc3c(c2)CN(C(=O)c2c(O)cc(C(F)F)cc2OCc2ccccc2)C3)C1 [Example 4.57, (2-(Benzyloxy)-4-(difluoromethyl)-6-hydroxyphenyl)(5-((1-methylazetidin-3-yl)oxy)isoindolin-2-yl)methanone] | < 0.1 µM |
| CN(C)CCOc1ccc2c(c1)CCN(C(=O)c1c(O)cc(Cl)cc1OCc1ccccc1)C2 [Example 10.22, (2-(Benzyloxy)-4-chloro-6-hydroxyphenyl)(6-(2-(dimethylamino)ethoxy)-3,4-dihydroisoquinolin-2(1H)-yl)methanone] | 1 to 10 µM |
| N#Cc1cc(O)c(C(=O)N2Cc3cccc(Nc4cncnc4)c3C2)c(OCc2ccccc2)c1 [Example 10.4, 3-(Benzyloxy)-5-hydroxy-4-(4-(pyrimidin-5-ylamino)isoindoline-2-carbonyl)benzonitrile] | 1 to 10 µM |
| O=C(c1c(O)cc(C(F)F)cc1OCc1nc2ccccc2[nH]1)N1CCc2cccc(N[C@H]3CCOC3)c2C1 [Example 28.4, (S)-(2-((1H-Benzo[d]imidazol-2-yl)methoxy)-4-(difluoromethyl)-6-hydroxyphenyl)(8-((tetrahydrofuran-3-yl)amino)-3,4-dihydroisoquinolin-2(1H)-yl)methanone] | 1 to 10 µM |
| O=C(c1c(O)cc(C(F)F)cc1OCc1ccccc1)N1CCc2ccc(N[C@H]3CCOC3)cc21 (single isomer, unassigned) [Example 27.2b, (S)-(2-(Benzyloxy)-4-(difluoromethyl)-6-hydroxyphenyl)(6-((tetrahydrofuran-3-yl)amino)indolin-1-yl)methanone or (R)-(2-(benzyloxy)-4-(difluoromethyl)-6-hydroxyphenyl)(6-((tetrahydrofuran-3-yl)amino)indolin-1-yl)methanone] | 0.1 to 1 µM |
| CN1CC(Nc2cccc3c2CN(C(=O)c2c(O)cc(C#N)cc2OCc2ccccc2)C3)CC1=O (centres unmarked) [Example 10.3, 3-(Benzyloxy)-5-hydroxy-4-(4-((1-methyl-5-oxopyrrolidin-3-yl)amino)isoindoline-2-carbonyl)benzonitrile] | 0.1 to 1 µM |
| N#Cc1cc(O)c(C(=O)N2CCc3cccc(N[C@@H]4CCOC4)c3C2)c(OCc2ccccc2)c1 [Example 10.12, (R)-3-(Benzyloxy)-5-hydroxy-4-(8-((tetrahydrofuran-3-yl)amino)-1,2,3,4-tetrahydroisoquinoline-2-carbonyl)benzonitrile] | 1 to 10 µM |
| O=C(c1c(O)cc(C(F)F)cc1OCc1ccccc1)N1CCc2ncnc(NC3CCOC3)c2C1 (centres unmarked) [Example 27.20, (2-(Benzyloxy)-4-(difluoromethyl)-6-hydroxyphenyl)(4-((tetrahydrofuran-3-yl)amino)-7,8-dihydropyrido[4,3-d]pyrimidin-6(5H)-yl)methanone] | 0.1 to 1 µM |
| O=C(c1c(O)cc(F)cc1OCc1ccccc1)N1Cc2cccc(N[C@@H]3CCOC3)c2C1 [Example 6, (R)-(2-(Benzyloxy)-4-fluoro-6-hydroxyphenyl)(4-((tetrahydrofuran-3-yl)amino)isoindolin-2-yl)methanone] | 1 to 10 µM |
| CN(C)CCOc1cc2c(c(N[C@H]3CCOC3)c1)CN(C(=O)c1c(O)cc(Cl)cc1OCc1ccccc1)C2 [Example 10, (S)-(2-(Benzyloxy)-4-chloro-6-hydroxyphenyl)(6-(2-(dimethylamino)ethoxy)-4-((tetrahydrofuran-3-yl)amino)isoindolin-2-yl)methanone] | < 0.1 µM |
| O=C(c1c(O)cc(C(F)F)cc1OCc1ccccc1)N1CCc2cccc(NC3COC3)c2C1 [Example 4.7, (2-(Benzyloxy)-4-(difluoromethyl)-6-hydroxyphenyl)(8-(oxetan-3-ylamino)-3,4-dihydroisoquinolin-2(1H)-yl) methanone] | 0.1 to 1 µM |
| CN(C)Cc1ccc2c(c1)CN(C(=O)c1c(O)cc(C(F)F)cc1OCc1ccccc1)CC2 [Example 4.42, (2-(Benzyloxy)-4-(difluoromethyl)-6-hydroxyphenyl)(7-((dimethylamino)methyl)-3,4-dihydroisoquinolin-2(1H)-yl)methanone] | 0.1 to 1 µM |
| O=C(c1c(O)cc(C(F)F)cc1OCc1ccccc1)N1CCc2ccccc2C1 [Example 4.35, (2-(Benzyloxy)-4-(difluoromethyl)-6-hydroxyphenyl)(3,4-dihydroisoquinolin-2(1H)-yl)methanone] | 1 to 10 µM |
| O=C(c1c(O)cc(C(F)F)cc1OCc1ccc2ccncc2c1)N1CCc2cccc(N[C@H]3CCOC3)c2C1 [Example 28.3, (S)-(4-(Difluoromethyl)-2-hydroxy-6-(isoquinolin-7-ylmethoxy)phenyl)(8-((tetrahydrofuran-3-yl)amino)-3,4-dihydroisoquinolin-2(1H)-yl)methanone] | 0.1 to 1 µM |
